From patent publication US9656955B2, “Pyrrolidine derivatives, pharmaceutical compositions containing them, and their use in therapy” (AbbVie Deutschland GmbH & Co. KG, priority 2013, dated 2017) come the findings set out here.

Molecules are shown by their SMILES.

For the first assay, the target named is human GlyT1c transporter (Homo sapiens (Human), UniProt P48067). Nature of the assay: Radioligand binding assays using recombinant CHO cell membranes expressing human GlyT1.
Sequence of human GlyT1c transporter (P48067 whole entry): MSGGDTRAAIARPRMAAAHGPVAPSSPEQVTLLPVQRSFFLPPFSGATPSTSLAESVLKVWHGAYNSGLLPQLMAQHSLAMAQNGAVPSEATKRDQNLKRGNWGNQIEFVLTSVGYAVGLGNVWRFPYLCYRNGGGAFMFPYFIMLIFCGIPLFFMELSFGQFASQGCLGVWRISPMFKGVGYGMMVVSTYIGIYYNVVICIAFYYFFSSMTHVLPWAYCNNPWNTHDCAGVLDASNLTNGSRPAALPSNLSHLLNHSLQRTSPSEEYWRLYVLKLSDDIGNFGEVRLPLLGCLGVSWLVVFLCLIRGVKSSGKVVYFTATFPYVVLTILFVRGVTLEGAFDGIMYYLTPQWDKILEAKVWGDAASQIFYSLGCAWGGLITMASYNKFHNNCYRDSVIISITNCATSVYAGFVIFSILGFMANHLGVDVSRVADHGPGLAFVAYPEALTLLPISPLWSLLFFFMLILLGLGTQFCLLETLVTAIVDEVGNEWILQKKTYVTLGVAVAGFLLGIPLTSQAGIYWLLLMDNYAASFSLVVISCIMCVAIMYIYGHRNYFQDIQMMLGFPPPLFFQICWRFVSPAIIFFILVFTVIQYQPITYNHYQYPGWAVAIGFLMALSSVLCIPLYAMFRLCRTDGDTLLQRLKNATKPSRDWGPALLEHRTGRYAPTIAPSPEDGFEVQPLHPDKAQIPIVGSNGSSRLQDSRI
Details: not given
`Cn1cnc(S(=O)(=O)N2C[C@@H](Nc3cccc(F)n3)[C@H](c3ccc(F)cc3)C2)c1` (relative stereo) [Example 238, 6-fluoro-N-{trans-4-(4-fluorophenyl)-1-[(1-methyl-1H-imidazol-4-yl)sulfonyl]pyrrolidin-3-yl}pyridin-2-amine]: the Ki (usually a dissociation constant, usually derived from enzyme kinetics or from competition with a known ligand) was at most 10 µM. The same measure, in the same setting: the result for `Cn1cnc(S(=O)(=O)N2C[C@@H](C(=O)c3ccc(Cl)c(F)c3)[C@H](c3ccc(F)cc3)C2)c1` (relative stereo) [Example 319, (4-Chloro-3-fluorophenyl){trans-4-(4-fluorophenyl)-1-[(1-methyl-1H-imidazol-4-yl)sulfonyl]pyrrolidin-3-yl}methanone] reads at most 0.1 µM; that for `Cn1cnc(S(=O)(=O)N2C[C@@H](C(=O)c3cc(Cl)cc(Cl)c3)[C@H](c3ccc(F)cc3)C2)c1` (relative stereo) [Example 360, (3,5-Dichlorophenyl) {trans-4-(4-fluorophenyl)-1-[(1-methyl-1H-imidazol-4-yl)sulfonyl]pyrrolidin-3-yl}methanone], at most 0.1 µM; that for `Cn1cnc(S(=O)(=O)N2C[C@@H](Nc3cc(C(F)(F)F)ncn3)[C@H](C3CCCO3)C2)c1` (relative stereo) [Example 853, N-[Trans-1-[(1-methyl-1H-imidazol-4-yl)sulfonyl]-4-(tetrahydrofuran-2-yl)pyrrolidin-3-yl]-6-(trifluoromethyl)pyrimidin-4-amine], at most 1 µM.

Staying with this assay, now noted: radioligand binding, human GlyT1c transporter-expressing CHO cell membranes.
For the compound `Cn1cnc(S(=O)(=O)N2C[C@@H]([C@@H]3CCCOC3)[C@H](Nc3cccc(OCC(F)(F)F)c3)C2)c1` (mixture of isomers) [Example 785, trans-1-[(1-methyl-1H-imidazol-4-yl)sulfonyl]-4-[(3S)-tetrahydro-2H-pyran-3-yl]-N-[3-(2,2,2-trifluoroethoxy)phenyl]pyrrolidin-3-amine], the Ki was at most 0.1 µM. On the same count and under the same terms, the result for `Cn1cnc(S(=O)(=O)N2C[C@@H](C(=O)c3ccc(F)cc3)[C@H](c3ccc(F)cc3)C2)c1` (relative stereo) [Example 303, (4-fluorophenyl){trans-4-(4-fluorophenyl)-1-[(1-methyl-1H-imidazol-4-yl)sulfonyl]pyrrolidin-3-yl}methasone] reads at most 10 µM; that for `Cn1cnc(S(=O)(=O)N2C[C@@H](c3ccccc3)[C@](C)(NCc3ccc(Cl)cc3)C2)c1` (relative stereo) [Example 354, Trans-N-(4-chlorobenzyl)-3-methyl-1-[(1-methyl-1H-imidazol-4-yl)sulfonyl]-4-phenylpyrrolidin-3-amine], at most 1 µM.

For `Cn1cnc(S(=O)(=O)N2C[C@@H](c3ccccc3)[C@](C)(NCc3ccc(C(F)(F)F)cc3)C2)c1` (relative stereo) [Example 355, Trans-3-methyl-1-[(1-methyl-1H-imidazol-4-yl)sulfonyl]-4-phenyl-N-[4-(trifluoromethyl)benzyl]pyrrolidin-3-amine], the Ki was at most 1 µM. `Cn1cnc(S(=O)(=O)N2C[C@@H](NC(=O)c3ccc(C(F)(F)F)cc3)[C@@](O)(c3ccccc3)C2)c1` (relative stereo) [Example 538, N-{Trans-4-hydroxy-1-[(1-methyl-1H-imidazol-4-yl)sulfonyl]-4-phenylpyrrolidin-3-yl}-4-(trifluoromethyl)benzamide]: the Ki is at most 10 µM. Still for that read-out and setting: under `Cn1cnc(S(=O)(=O)N2CC(c3ccccc3)N(Cc3cccc(Cl)c3)C2=O)c1` (stereo not shown) [Example 343, 3-(3-chlorobenzyl)-1-[(1-methyl-1H-imidazol-4-yl)sulfonyl]-4-phenylimidazolidin-2-one] stands at most 10 µM; under `Cn1cnc(S(=O)(=O)N2C[C@H](Nc3ccc(F)c(Cl)c3)[C@@H](c3ccc(F)cc3)C2)c1` [Example 352, (3R,4S)—N-(3-chloro-4-fluorophenyl)-4-(4-fluorophenyl)-1-[(1-methyl-1H-imidazol-4-yl)sulfonyl]pyrrolidin-3-amine], at most 0.01 µM; under `Cn1cnc(S(=O)(=O)N2C[C@H](Nc3cccc(C#N)c3)[C@@H](c3ccc(F)cc3)C2)c1` [Example 380, 3-({(3R,4S)-4-(4-fluorophenyl)-1-[(1-methyl-1H-imidazol-4-yl)sulfonyl]pyrrolidin-3-yl}-amino)benzonitrile], at most 0.1 µM. Still for that read-out and setting: the result for `Cn1cnc(S(=O)(=O)N2CC(c3ccc(F)cc3)C(O)(Cc3ccccc3)C2)c1` (stereo not shown) [Example 382, 3-benzyl-4-(4-fluorophenyl)-1-[(1-methyl-1H-imidazol-4-yl)sulfonyl]pyrrolidin-3-ol] reads at most 0.1 µM; that for `Cn1cnc(S(=O)(=O)N2CC(Nc3nnccc3C(F)(F)F)C(c3ccc(F)cc3)C2)c1` (stereo not shown) [Example 384, N-{4-(4-fluorophenyl)-1-[(1-methyl-1H-imidazol-4-yl)sulfonyl]pyrrolidin-3-yl}-4-(trifluoromethyl)pyridazin-3-amine], at most 10 µM.

For the compound `Cn1cnc(S(=O)(=O)N2C[C@@H](Nc3cccc(C#N)c3)[C@H](c3ccc(F)cc3)C2)c1` [Example 389, 3-({(3S,4R)-4-(4-fluorophenyl)-1-[(1-methyl-1H-imidazol-4-yl)sulfonyl]pyrrolidin-3-yl}amino)benzonitrile], the Ki was at most 10 µM. In the case of `Cn1cnc(S(=O)(=O)N2C[C@H](NCc3ccc(C(F)(F)F)cc3)[C@@H](c3ccccc3)C2)c1` [Example 398, (3R,4S)-1-[(1-methyl-1H-imidazol-4-yl)sulfonyl]-4-phenyl-N-[4-(trifluoromethyl)benzyl]pyrrolidin-3-amine], the Ki was at most 0.01 µM.

As to `Cn1cnc(S(=O)(=O)N2C[C@H](Nc3cnc(C4CCC4)cn3)[C@@H](c3ccccc3)C2)c1` [Example 411, 5-cyclobutyl-N-{(3R,4S)-1-[(1-methyl-1H-imidazol-4-yl)sulfonyl]-4-phenylpyrrolidin-3-yl}pyrazin-2-amine], the inhibitory constant (Ki) was at most 10 µM. For `Cn1cnc(S(=O)(=O)N2C[C@H](NC(=O)c3cnc(C(F)(F)F)cn3)[C@@H](c3ccccc3)C2)c1` [Example 414, N-{(3R,4S)-1-[(1-methyl-1H-imidazol-4-yl)sulfonyl]-4-phenylpyrrolidin-3-yl}-5-(trifluoromethyl)pyrazine-2-carboxamide], the Ki is at most 10 µM.

On to `Cn1cnc(S(=O)(=O)N2C[C@H](Nc3ccc(F)c(Cl)c3)[C@@H](c3ccccc3)C2)c1` [Example 417, (3R,4S)—N-(3-chloro-4-fluorophenyl)-1-[(1-methyl-1H-imidazol-4-yl)sulfonyl]-4-phenylpyrrolidin-3-amine], for which the Ki was at most 0.01 µM. On the same count and under the same terms, under `Cn1cnc(S(=O)(=O)N2C[C@H](NC(=O)c3ccc(Cl)nn3)[C@@H](c3ccccc3)C2)c1` [Example 419, 6-chloro-N-{(3R,4S)-1-[(1-methyl-1H-imidazol-4-yl)sulfonyl]-4-phenylpyrrolidin-3-yl}pyridazine-3-carboxamide] stands at least 10 µM.

For the compound `Cn1cnc(S(=O)(=O)N2C[C@H](Nc3ccnc(N4CCOCC4)n3)[C@@H](c3ccccc3)C2)c1` [Example 420, N-{(3R,4S)-1-[(1-methyl-1H-imidazol-4-yl)sulfonyl]-4-phenylpyrrolidin-3-yl}-2-(morpholin-4-yl)pyrimidin-4-amine], the Ki is at most 10 µM. `CCCc1ccc(CN[C@H]2CN(S(=O)(=O)c3cn(C)cn3)C[C@@H]2c2ccccc2)o1` [Example 428, (3R,4S)-1-[(1-methyl-1H-imidazol-4-yl)sulfonyl]-4-phenyl-N-[(5-propylfuran-2-yl)methyl]pyrrolidin-3-amine]: the Ki was at most 0.1 µM. In the case of `CC(C)N1CCC(CN[C@H]2CN(S(=O)(=O)c3cn(C)cn3)C[C@@H]2c2ccccc2)CC1` [Example 459, (3R,4S)-1-[(1-methyl-1H-imidazol-4-yl)sulfonyl]-4-phenyl-N-{[1-(propan-2-yl)piperidin-4-yl]methyl}pyrrolidin-3-amine], the Ki was at most 10 µM. For the compound `Cn1cnc(S(=O)(=O)N2C[C@H](NCc3nc(-c4ccc(F)cc4)cs3)[C@@H](c3ccccc3)C2)c1` [Example 460, (3R,4S)—N-{[4-(4-fluorophenyl)-1,3-thiazol-2-yl]methyl}-1-[(1-methyl-1H-imidazol-4-yl)sulfonyl]-4-phenylpyrrolidin-3-amine], the Ki is at most 10 µM. For `Cc1ccc(CN[C@H]2CN(S(=O)(=O)c3cn(C)cn3)C[C@@H]2c2ccccc2)s1` [Example 462, (3R,4S)-1-[(1-methyl-1H-imidazol-4-yl)sulfonyl]-N-[(5-methylthiophen-2-yl)methyl]-4-phenylpyrrolidin-3-amine], the Ki is at most 0.1 µM. The same measure, in the same setting: the result for `Cn1cc(S(=O)(=O)N2CC(Nc3ccc(F)c(F)c3)C(c3ccccc3)C2)c(C(F)(F)F)n1` (stereo not shown) [Example 476, N-(3,4-difluorophenyl)-1-{[1-methyl-3-(trifluoromethyl)-1H-pyrazol-4-yl]sulfonyl}-4-phenylpyrrolidin-3-amine] reads at most 10 µM; that for `CC1(C)C(=O)Nc2ccc(S(=O)(=O)N3CC(Nc4ccc(F)c(F)c4)C(c4ccccc4)C3)cc21` (stereo not shown) [Example 478, 5-({3-[(3,4-difluorophenyl)amino]-4-phenylpyrrolidin-1-yl}sulfonyl)-3,3-dimethyl-1,3-dihydro-2H-indol-2-one], at most 10 µM; that for `Cc1nn(C2CCCC2)cc1S(=O)(=O)N1CC(Nc2ccc(F)c(F)c2)C(c2ccccc2)C1` (stereo not shown) [Example 479, 1-[(1-cyclopentyl-3-methyl-1H-pyrazol-4-yl)sulfonyl]-N-(3,4-difluorophenyl)-4-phenylpyrrolidin-3-amine], above 10 µM.

On to `Cc1cc(S(=O)(=O)N2CC(Nc3ccc(F)c(F)c3)C(c3ccccc3)C2)n(C)n1` (stereo not shown) [Example 482, N-(3,4-difluorophenyl)-1-[(1,3-dimethyl-1H-pyrazol-5-yl)sulfonyl]-4-phenylpyrrolidin-3-amine], for which the Ki is at most 10 µM.

Turning to `Cc1cc(S(=O)(=O)N2CC(Nc3ccc(F)c(F)c3)C(c3ccccc3)C2)c(C)o1` (stereo not shown) [Example 488, N-(3,4-difluorophenyl)-1-[(2,5-dimethylfuran-3-yl)sulfonyl]-4-phenylpyrrolidin-3-amine], the Ki is at most 10 µM. On to `COC(=O)c1sccc1S(=O)(=O)N1CC(Nc2ccc(F)c(F)c2)C(c2ccccc2)C1` (stereo not shown) [Example 489, methyl 3-({3-[(3,4-difluorophenyl)amino]-4-phenylpyrrolidin-1-yl}sulfonyl)thiophene-2-carboxylate], for which the Ki is at most 10 µM.
